Read-outs that look alike come from different tables or passages of the source. Non-standard residues stand in square brackets, D forms with d. Residues, ends and D or L forms follow the SMILES beside them.
How the values were obtained:
[1] = test system: GRP78 promoter in HeLa cells; assay: Luciferase reporter assay for ER stress; type: cell-based; details: positive control
Experimental: HeLa cells were transfected with either either 15 µg of plasmid DJT208, carrying the GRP78 promoter (pGRP78) driving the ER-stress response elements ERSE 1, ERSE 2 and ERSE 3 upstream of the luciferase gene, or 15 µg of the plasmid GL2P, carrying the luciferase gene driven by the SV40 promoter (pSV40). All cells were also co-transfected with 10 µg of the PB1 plasmid, carrying the β-galactosidase reporter transcribed by the SV40 promoter, as a transfection control. [The plasmids were generous gifts from Dr. Peter Belmont from Christopher Glembotski's Lab in SDSU]. After 24 h the cells were treated with increasing concentrations of wrwycr (100, 150 and 200 µM) for 24 h and the luciferase activity was measured using an OptocompII Luminometer. Tunicamycin (TM), a known inducer of ER stress, was used as a positive control for the experiment ER stress was calculated as the fold increase of luciferase gene expression from the GRP78 promoter over that from the SV40 promoter of pGL2P for the different concentrations of the peptide over DMSO, which is the solvent for the peptide, or over the media in the case of TM.

[2] = test system: Htog1 cells (variant of HeLa cells); assay: Cytochrome C release / TMRE assay for apoptosis; type: cell-based; details: 150 µM etoposide, 24 h, positive control
Experimental: 200,000 Htog1 cells (variant of HeLa cells, a generous gift from Drs. Terrence Frey and Maria Guo) were seeded on cover slips mounted on 35 mm microwell petri dishes (Mattek Corp, Ashland, MA) with DMEM supplemented with 10% FBS and allowed to attach overnight at 37°C in 5% CO2. The media was replaced with 1 ml of the appropriate treatment and incubated for 24 h. After 23 h of treatment, 50 µM tetramethyl rhodamine ethyl ester perchlorate (TMRE) solution was added to each well (final concentration 50 nM) and incubated for the remaining hour. Cytochrome C release and loss of TMRE staining were determined in Z-series images acquired using a Leica TCS SP2 inverted confocal microscope. GFP was excited using 488 nm wavelength from an Ar/Kr laser attenuated to 33%, and the emitted fluorescence detected at 497–553 nm. TMRE fluorescence was excited using a 543 nm wavelength from an Ar/Kr laser attenuated to 35%, and the emitted fluorescence detected at 555–620 nm. Each cell was analyzed for release of GFP (GFP channel), loss of mitochondrial membrane potential (TMRE loss) or morphological abnormalities associated with apoptosis, and the % cells positive for each hallmark was calculated for the various treatments.

HeLa cells = assay: TUNEL assay, HeLa, with z-VAD-fmk or z-FA-fmk; type: cell-based
Experimental: 600,000 PC3 cells or 500,000 HeLa cells were plated in 60-mm dishes or 6-well plates respectively to allow them to attach overnight at 37°C with 5% CO2. PC3 cells were subsequently treated with appropriate treatments for 24, 36 and 48 h while HeLa cells were treated with 1 µl of either the caspase inhibitor z-VAD-fmk or z-FA-fmk (both from Biovision), containing appropriate treatments, for 24 h. The cells were fixed with 4% paraformaldehyde for 30 min and permeabilized with 0.1% Triton X-100 in 0.1% sodium citrate buffer for 3 mins. Labeled dUTP were added along with the terminal deoxynucleotidyl transferase dUTP nick end labeling (TUNEL) (TUNEL kit from Roche) as described in the kit. Samples were analyzed using a Becton Dickinson FACS Canto flow cytometer as specified above.

DuPro-1 cells = type: cell-based; details: 48 h
PC3 cells [3] = assay: HPLC determination of intracellular and extracellular peptide concentration; type: in vitro ADME
Experimental: 500,000 HeLa or 400,000 PC3 cells were plated in each well of the 6-well dishes (Costar) and allowed to attach overnight at 37°C with 5% CO2. The cells were treated with d-wrwycr or d-wrwyrggrywrw for 24 or 48 h respectively. For PC3 cells media along with the dodecamer treatments were collected for a separate run in HPLC. PC3 or HeLa cells were lysed using a lysis buffer containing 0.71% NP40, 71 mM Tris (pH 7.5), 0.71 mM EDTA and 212 mM NaCl on ice for 5–10 mins. The lysates were centrifuged at 13,000 g for 7 mins to clear cellular debris. The samples were analyzed by HPLC (Beckman Coulter System Gold BioEssential 126/168) using a Phenomonex Jupiter 4 micron Proteo 90A C18 hydrophobic column to detect the peptides within the cells. […] The intracellular concentration was calculated by taking into account the area under the peptide peaks, using the integration function of 32 Karat software (Beckman Coulter, Fullerton, California), and comparing them to the standard curve of the peptide. […] The extracellular concentration of wrwyrggrywrw was calculated by running the media similarly in HPLC and comparing them to the standard curve of wrwyrggrywrw.
To investigate whether peptide wrwycr or wrwyrggrywrw accumulated within cells, the concentration of the unlabeled and unmodified peptides was directly determined using an HPLC-based method. […]

PC3 cells [4] = details: for cell survival: MTT
Experimental: 20,000 PC3 cells were plated overnight in 96 well plates (Costar) at a concentration of 200,000 cells/ml. They are treated with the peptides, doxorubicin, docetaxel alone, or in combination for different time period incubation and the cell viability was determined by MTT assay as described. The percentage survival of the cells with different treatments was calculated using DMSO-vehicle control-treated cells as the standard.

LnCAP cells = type: cell-based; details: 48 h
Chk2 in PC3 cells = assay: Phospho-Chk2 by flow cytometry; type: cell-based; details: PC3, 1 µM doxorubicin on its own, 48 h
Experimental: They were subsequently treated with either 50-200 μM […] or 50-100 μM […] or 0.5-1 μM doxorubicin or combination treatment for 0, 12, 24, 36 and 48 h. […] Samples were analyzed using a Becton Dickinson FACS Canto flow cytometer at a forward scatter voltage of 25 V, side-scatter voltage of 400 V, and FITC channel at a voltage of 400 V.

Tunicamycin
pGRP78 Units ([1]; concentration not given): 425255±16205
pSV40 Units ([1]; concentration not given): 4606±362.1
pGRP78/pSV40 ([1]; over the media): 20.0±1.36
pGRP78 Fold change ([1]; over the media): 7.9±0.09
pSV40 Fold change ([1]; over the media): 0.4±0.02

COc1cc([C@@H]2c3cc4c(cc3[C@@H](O[C@@H]3O[C@@H]5CO[C@@H](C)O[C@H]5[C@H](O)[C@H]3O)[C@H]3COC(=O)[C@H]23)OCO4)cc(OC)c1O [etoposide, reference compound]
cytochrome C release and mitochondrial membrane potential [2]: loss of mitochondrial membrane potential and release of cytC
TUNEL-positive cells (HeLa cells; 1.3 µM etoposide alone): < 2%

N=C(N)NCCC[C@@H](NC(=O)CNC(=O)CNC(=O)[C@@H](CCCNC(=N)N)NC(=O)[C@@H](Cc1ccc(O)cc1)NC(=O)[C@@H](Cc1c[nH]c2ccccc12)NC(=O)[C@@H](CCCNC(=N)N)NC(=O)[C@H](N)Cc1c[nH]c2ccccc12)C(=O)N[C@H](Cc1ccc(O)cc1)C(=O)N[C@H](Cc1c[nH]c2ccccc12)C(=O)N[C@H](CCCNC(=N)N)C(=O)N[C@H](Cc1c[nH]c2ccccc12)C(N)=O [wrwyrggrywrw] (H-[dW][dR][dW][dY][dR]GG[dR][dY][dW][dR][dW]-NH2)
IC50 (DuPro-1 cells): 25 µM
intracellular concentration (PC3 cells [3]; 25 µM input dose, PC3 cells, 48 h, cell lysate soluble fraction, HPLC C18 against standard curve, cell volume 1.6–2.4 pl): ~1 mM
peptide in the media less than input (PC3 cells [3]; media with 10% FBS after treatment of PC3 cells, several input concentrations, HPLC (Figure 2Aii)): 5–10%
IC50 (PC3 cells [4]; 48 h): 50 µM
IC50 (LnCAP cells): 25 µM

OC[C@@H](O)[C@@H](O)[C@H](O)[C@@H](O)CO [sorbitol]
TUNEL-positive cells (HeLa cells; 400 mM sorbitol with mock inhibitor z-FA-fmk): ~80%
TUNEL-positive cells (HeLa cells; 400 mM sorbitol with z-VAD-fmk inhibitor): < 10%

NC(=O)NO [hydroxyurea]
TUNEL-positive cells (HeLa cells; 10 mM hydroxyurea alone): < 2%

COc1cccc2c1C(=O)c1c(O)c3c(c(O)c1C2=O)C[C@@](O)(C(=O)CO)C[C@@H]3O[C@H]1C[C@H](N)[C@H](O)[C@H](C)O1 [doxorubicin]
cellular population with activated Chk2 (Chk2 in PC3 cells): 50%
cell survival (PC3 cells [4]; PC3, 1 µM doxorubicin alone, time course, evident at 36 h (Figure 9B)): 80%
cell survival (PC3 cells [4]; PC3, 2.5 µM doxorubicin alone, 48 h): 73%

CC(=O)O[C@@]12CO[C@@H]1C[C@H](O)[C@@]1(C)C(=O)[C@H](O)C3=C(C)[C@@H](OC(=O)[C@H](O)[C@@H](NC(=O)OC(C)(C)C)c4ccccc4)C[C@@](O)([C@@H](OC(=O)c4ccccc4)[C@H]21)C3(C)C [docetaxel]
cell survival (PC3 cells [4]; PC3, 10 nM docetaxel, 48 h): 90%
cell survival (PC3 cells [4]; PC3, 50 nM docetaxel, 48 h): 80%

From paper PMC3828334, “Tumor Cell Death Mediated by Peptides That Recognize Branched Intermediates of DNA Replication and Repair” (PLoS ONE, 2013)
